Experimental data as given in PubChem BioAssay (NCI).
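Briefly, cells in 96-well plates were exposed to five compound concentrations for 48 h, and endpoints were estimated by linear interpolation. Here, GI50 denotes the concentration required for 50% inhibition of growth. TGI: total growth inhibition.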

Columns and labels:
Experiment in all cases: DTP human tumour cell line panel, 48 h
MDA-MB-231 breast = tested on: MDA-MB-231 breast
NCI-H226 lung = tested on: NCI-H226 lung
NCI-H522 lung = tested on: NCI-H522 lung
SN12C renal = tested on: SN12C renal
PC-3 prostate = tested on: PC-3 prostate
SNB-75 CNS = tested on: SNB-75 CNS
SR leukemia = tested on: SR leukemia
HCC-2998 colon = tested on: HCC-2998 colon
MCF7 breast = tested on: MCF7 breast
OVCAR-8 ovarian = tested on: OVCAR-8 ovarian
HOP-62 NSCLC = tested on: HOP-62 NSCLC
UACC-257 melanoma = tested on: UACC-257 melanoma
NCI-H460 lung = tested on: NCI-H460 lung
RPMI-8226 leukemia = tested on: RPMI-8226 leukemia
SK-MEL-2 melanoma = tested on: SK-MEL-2 melanoma
MOLT-4 leukemia = tested on: MOLT-4 leukemia
RXF 393 renal = tested on: RXF 393 renal
SF-295 CNS = tested on: SF-295 CNS
EKVX NSCLC = tested on: EKVX NSCLC
SF-268 CNS = tested on: SF-268 CNS
HS 578T breast = tested on: HS 578T breast
M14 melanoma = tested on: M14 melanoma
NCI/ADR-RES ovarian = tested on: NCI/ADR-RES ovarian
COLO 205 colon = tested on: COLO 205 colon
OVCAR-4 ovarian = tested on: OVCAR-4 ovarian
HOP-92 NSCLC = tested on: HOP-92 NSCLC
KM12 colon = tested on: KM12 colon
DU-145 prostate = tested on: DU-145 prostate
SF-539 CNS = tested on: SF-539 CNS
HT29 colon = tested on: HT29 colon
SK-OV-3 ovarian = tested on: SK-OV-3 ovarian
MALME-3M melanoma = tested on: MALME-3M melanoma
ACHN renal = tested on: ACHN renal
MDA-MB-435 = tested on: MDA-MB-435
SK-MEL-5 melanoma = tested on: SK-MEL-5 melanoma
HCT-116 colon = tested on: HCT-116 colon
IGROV1 ovarian = tested on: IGROV1 ovarian
SK-MEL-28 melanoma = tested on: SK-MEL-28 melanoma
UO-31 renal = tested on: UO-31 renal
786-0 renal = tested on: 786-0 renal
A498 renal = tested on: A498 renal
UACC-62 melanoma = tested on: UACC-62 melanoma
BT-549 breast = tested on: BT-549 breast
HL-60(TB) leukemia = tested on: HL-60(TB) leukemia
TK-10 renal = tested on: TK-10 renal
A549 NSCLC = tested on: A549 NSCLC
U251 CNS = tested on: U251 CNS
HCT-15 colon = tested on: HCT-15 colon
SNB-19 CNS = tested on: SNB-19 CNS
T-47D breast = tested on: T-47D breast
K-562 leukemia = tested on: K-562 leukemia
OVCAR-5 ovarian = tested on: OVCAR-5 ovarian
SW-620 colon = tested on: SW-620 colon
CAKI-1 renal = tested on: CAKI-1 renal
NCI-H23 lung = tested on: NCI-H23 lung
LOX IMVI melanoma = tested on: LOX IMVI melanoma
CCRF-CEM leukemia = tested on: CCRF-CEM leukemia
OVCAR-3 ovarian = tested on: OVCAR-3 ovarian

CNC(=O)c1sc(-n2cnc3cc(OC)c(OC)cc32)cc1OCc1ccccc1C(F)(F)F showed a GI50 (MDA-MB-231 breast) of 15.9 µM, a TGI (MDA-MB-231 breast) greater than 25 µM and a GI50 (NCI-H226 lung) of 22.9 µM. For the same compound, the TGI (NCI-H226 lung) was greater than 25 µM, the GI50 (NCI-H522 lung) was greater than 25 µM and the TGI (NCI-H522 lung) was greater than 25 µM. It also gave a GI50 (SN12C renal) greater than 25 µM, a TGI (SN12C renal) greater than 25 µM and a GI50 (PC-3 prostate) greater than 25 µM. For the same compound, the TGI (PC-3 prostate) was greater than 25 µM, the GI50 (SNB-75 CNS) was greater than 15.8 µM and the TGI (SNB-75 CNS) was greater than 25 µM. For the same compound, the GI50 (SR leukemia) was 9.49 µM, the TGI (SR leukemia) was greater than 25 µM and the GI50 (HCC-2998 colon) was greater than 25 µM. It also gave a TGI (HCC-2998 colon) greater than 25 µM, a GI50 (MCF7 breast) greater than 25 µM and a TGI (MCF7 breast) greater than 25 µM. For the same compound, the GI50 (OVCAR-8 ovarian) was greater than 19.2 µM, the TGI (OVCAR-8 ovarian) was greater than 25 µM and the GI50 (HOP-62 NSCLC) was greater than 25 µM. It also gave a TGI (HOP-62 NSCLC) greater than 25 µM, a GI50 (UACC-257 melanoma) greater than 25 µM and a TGI (UACC-257 melanoma) greater than 25 µM. It also gave a GI50 (NCI-H460 lung) greater than 25 µM, a TGI (NCI-H460 lung) greater than 25 µM and a GI50 (RPMI-8226 leukemia) greater than 25 µM. It also gave a TGI (RPMI-8226 leukemia) greater than 25 µM, a GI50 (SK-MEL-2 melanoma) greater than 25 µM and a TGI (SK-MEL-2 melanoma) greater than 25 µM. For the same compound, the GI50 (MOLT-4 leukemia) was greater than 23.6 µM, the TGI (MOLT-4 leukemia) was greater than 25 µM and the GI50 (RXF 393 renal) was greater than 25 µM. For the same compound, the TGI (RXF 393 renal) was greater than 25 µM, the GI50 (SF-295 CNS) was greater than 21.4 µM and the TGI (SF-295 CNS) was greater than 25 µM. The GI50 (EKVX NSCLC) was greater than 25 µM, the TGI (EKVX NSCLC) was greater than 25 µM and the GI50 (SF-268 CNS) was greater than 25 µM. For the same compound, the TGI (SF-268 CNS) was greater than 25 µM, the GI50 (HS 578T breast) was greater than 25 µM and the TGI (HS 578T breast) was greater than 25 µM. The GI50 (M14 melanoma) was greater than 25 µM, the TGI (M14 melanoma) was greater than 25 µM and the GI50 (NCI/ADR-RES ovarian) was 14.9 µM. It also gave a TGI (NCI/ADR-RES ovarian) greater than 25 µM, a GI50 (COLO 205 colon) greater than 25 µM and a TGI (COLO 205 colon) greater than 25 µM. For the same compound, the GI50 (OVCAR-4 ovarian) was greater than 25 µM, the TGI (OVCAR-4 ovarian) was greater than 25 µM and the GI50 (HOP-92 NSCLC) was 2.2 µM. It also gave a TGI (HOP-92 NSCLC) greater than 25 µM, a GI50 (KM12 colon) greater than 25 µM and a TGI (KM12 colon) greater than 25 µM. The GI50 (DU-145 prostate) was greater than 25 µM, the TGI (DU-145 prostate) was greater than 25 µM and the GI50 (SF-539 CNS) was greater than 25 µM. It also gave a TGI (SF-539 CNS) greater than 25 µM, a GI50 (HT29 colon) greater than 25 µM and a TGI (HT29 colon) greater than 25 µM. The GI50 (SK-OV-3 ovarian) was greater than 25 µM, the TGI (SK-OV-3 ovarian) was greater than 25 µM and the GI50 (MALME-3M melanoma) was greater than 25 µM. It also gave a TGI (MALME-3M melanoma) greater than 25 µM, a GI50 (ACHN renal) greater than 25 µM and a TGI (ACHN renal) greater than 25 µM. It also gave a GI50 (MDA-MB-435) greater than 25 µM, a TGI (MDA-MB-435) greater than 25 µM and a GI50 (SK-MEL-5 melanoma) greater than 25 µM. For the same compound, the TGI (SK-MEL-5 melanoma) was greater than 25 µM, the GI50 (HCT-116 colon) was greater than 25 µM and the TGI (HCT-116 colon) was greater than 25 µM. The GI50 (IGROV1 ovarian) was greater than 25 µM, the TGI (IGROV1 ovarian) was greater than 25 µM and the GI50 (SK-MEL-28 melanoma) was greater than 25 µM. For the same compound, the TGI (SK-MEL-28 melanoma) was greater than 25 µM, the GI50 (UO-31 renal) was 12 µM and the TGI (UO-31 renal) was greater than 25 µM. The GI50 (786-0 renal) was greater than 25 µM, the TGI (786-0 renal) was greater than 25 µM and the GI50 (A498 renal) was 1.39 µM. The TGI (A498 renal) was greater than 24 µM, the GI50 (UACC-62 melanoma) was greater than 22.6 µM and the TGI (UACC-62 melanoma) was greater than 25 µM. The GI50 (BT-549 breast) was greater than 25 µM, the TGI (BT-549 breast) was greater than 25 µM and the GI50 (HL-60(TB) leukemia) was greater than 15.8 µM. It also gave a TGI (HL-60(TB) leukemia) greater than 25 µM, a GI50 (TK-10 renal) greater than 25 µM and a TGI (TK-10 renal) greater than 25 µM. The GI50 (A549 NSCLC) was greater than 25 µM, the TGI (A549 NSCLC) was greater than 25 µM and the GI50 (U251 CNS) was greater than 25 µM. It also gave a TGI (U251 CNS) greater than 25 µM, a GI50 (HCT-15 colon) greater than 25 µM and a TGI (HCT-15 colon) greater than 25 µM. It also gave a GI50 (SNB-19 CNS) greater than 23.6 µM, a TGI (SNB-19 CNS) greater than 25 µM and a GI50 (T-47D breast) of 19.9 µM. For the same compound, the TGI (T-47D breast) was greater than 25 µM, the GI50 (K-562 leukemia) was greater than 25 µM and the TGI (K-562 leukemia) was greater than 25 µM. It also gave a GI50 (OVCAR-5 ovarian) greater than 25 µM, a TGI (OVCAR-5 ovarian) greater than 25 µM and a GI50 (SW-620 colon) greater than 25 µM. For the same compound, the TGI (SW-620 colon) was greater than 25 µM, the GI50 (CAKI-1 renal) was greater than 25 µM and the TGI (CAKI-1 renal) was greater than 25 µM. It also gave a GI50 (NCI-H23 lung) greater than 25 µM, a TGI (NCI-H23 lung) greater than 25 µM and a GI50 (LOX IMVI melanoma) greater than 25 µM. The TGI (LOX IMVI melanoma) was greater than 25 µM, the GI50 (CCRF-CEM leukemia) was greater than 25 µM and the TGI (CCRF-CEM leukemia) was greater than 25 µM. It also gave a GI50 (OVCAR-3 ovarian) greater than 25 µM and a TGI (OVCAR-3 ovarian) greater than 25 µM.
